Laboratory results from publication PMC5454391, “Improving 10-deacetylbaccatin III-10-β-O-acetyltransferase catalytic fitness for Taxol production” (Nature Communications, 2017).
Substitutions are numbered along the chain they refer to.

Key:
Assay type in all cases: biochemical
DBAT of T. x media [1] = biological target: T1, DBAT of T. x media (Taxus x media, UniProt Q6SQJ5); test: HPLC of baccatin III formed; details: 500 μM acetyl-CoA, 50 mM sodium acetate pH 5.5, 40 °C, 20 min
T1 sequence (Q6SQJ5 1-440): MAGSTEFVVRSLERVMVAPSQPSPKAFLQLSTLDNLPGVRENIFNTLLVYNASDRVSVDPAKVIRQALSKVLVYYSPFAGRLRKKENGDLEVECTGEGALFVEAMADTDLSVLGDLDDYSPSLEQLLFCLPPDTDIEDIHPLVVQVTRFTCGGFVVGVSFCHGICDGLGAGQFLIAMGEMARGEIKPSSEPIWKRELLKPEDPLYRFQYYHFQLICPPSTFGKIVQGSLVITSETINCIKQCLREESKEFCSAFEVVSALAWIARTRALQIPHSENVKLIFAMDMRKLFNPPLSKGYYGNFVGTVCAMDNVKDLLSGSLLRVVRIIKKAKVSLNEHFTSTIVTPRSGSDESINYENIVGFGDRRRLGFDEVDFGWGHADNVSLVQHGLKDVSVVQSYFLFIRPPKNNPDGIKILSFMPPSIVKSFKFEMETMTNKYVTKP

[2] = biological target: T2, DBAT of T. wallichiana var. (Taxus mairei, UniProt B5KRG1); test: HPLC of baccatin III formed; details: 500 μM acetyl-CoA, 50 mM sodium acetate pH 5.5, 40 °C, 20 min
T2 sequence (B5KRG1 1-440): T1 sequence (Q6SQJ5 1-440) with V58A, L123H, V158M, Q213R, C216R, I352V

DBAT of T. canadensis [3] = biological target: T3, DBAT of T. canadensis (Taxus canadensis, UniProt B5KRF5); test: HPLC of baccatin III formed; details: 500 μM acetyl-CoA, 50 mM sodium acetate pH 5.5, 40 °C, 20 min
T3 sequence (B5KRF5 1-440): T1 sequence (Q6SQJ5 1-440) with V9L, V58A, Q213R, C216R, S228F, S294L, V422M

DBAT of T. x media [4] = biological target: T1, DBAT of T. x media; test: HPLC of Taxol formed; details: 500 μM acetyl-CoA, 50 mM sodium acetate pH 5.5, […], 180 min
DBAT of T. canadensis [5] = biological target: T3, DBAT of T. canadensis; test: HPLC of Taxol formed; details: 500 μM acetyl-CoA, 50 mM sodium acetate pH 5.5, […], 180 min
DBAT of T. brevifolia = biological target: T4, DBAT of T. brevifolia (Taxus brevifolia, UniProt B5KRG4); test: HPLC of Taxol formed; details: 500 μM acetyl-CoA, 50 mM sodium acetate pH 5.5, […], 180 min
T4 sequence (B5KRG4 1-440): T1 sequence (Q6SQJ5 1-440) with A52T, V58A, Q213R, C216H, S219T, I352M, L383I, S415L, M417L

[6] = biological target: T2, DBAT of T. wallichiana var.; test: HPLC of Taxol formed; details: 500 μM acetyl-CoA, 50 mM sodium acetate pH 5.5, […], 180 min

Row | SMILES | HPLC of baccatin III formed (DBAT of T. x media [1]) | HPLC of baccatin III formed [2] | HPLC of baccatin III formed (DBAT of T. canadensis [3]) | HPLC of Taxol formed (DBAT of T. x media [4]) | HPLC of Taxol formed (DBAT of T. canadensis [5]) | HPLC of Taxol formed (DBAT of T. brevifolia) | HPLC of Taxol formed [6]
1 | CC(=O)O[C@@]12CO[C@@H]1C[C@H](O)[C@@]1(C)C(=O)[C@H](O)C3=C(C)[C@@H](O)C[C@@](O)([C@@H](OC(=O)c4ccccc4)[C@H]21)C3(C)C [compound 1, 10-DAB] | T. x media origins showed similar conversion rates for 10-DAB | all other recombinant enzymes exhibited acetylation activity against 10-DAB and DT | all other recombinant enzymes exhibited acetylation activity against 10-DAB and DT | – | – | – | –
2 | CC(=O)O[C@@]12CO[C@@H]1C[C@H](O)[C@@]1(C)C(=O)[C@H](O)C3=C(C)[C@@H](OC(=O)[C@H](O)[C@@H](NC(=O)c4ccccc4)c4ccccc4)C[C@@](O)([C@@H](OC(=O)c4ccccc4)[C@H]21)C3(C)C [compound 2, DT] | – | – | – | all other recombinant enzymes exhibited acetylation activity against 10-DAB and DT | all other recombinant enzymes exhibited acetylation activity against 10-DAB and DT | the DBATs of T. cuspidata and T. brevifolia showed the highest specific activities | all other recombinant enzymes exhibited acetylation activity against 10-DAB and DT
